Test [1] relates to RAW264.7. Nature of the test: Antiinflammatory activity against LPS-stimulated mouse RAW264.7 cells assessed as iNOS levels by ELISA (reference value: 31.63 +/- 3.26 U/mL). It is filed as functional. For orientation: In an ELISA, binding on a coated surface is turned into a signal by an enzyme label.
The subject of test [2] is RAW264.7. Nature of the test: Antiinflammatory activity against LPS-stimulated mouse RAW264.7 cells assessed as IL1beta levels by ELISA (reference value: 8.70 +/- 0.365 pg/mL). The test is classed as functional.
Test [3] deals with RAW264.7. Nature of the test: Antiinflammatory activity against LPS-stimulated mouse RAW264.7 cells assessed as COX2 levels by ELISA (reference value: 159.64 +/- 13.56 pg/mL). It is filed as functional.
Test [4] relates to RAW264.7. The test is described as follows: Antiinflammatory activity against LPS-stimulated mouse RAW264.7 cells assessed as NO levels by ELISA (reference value: 0.95 +/- 0.052 umol/mL). The test is classed as functional.
The nature of test [5]: Inhibition of NFkappaB signaling pathway in LPS-stimulated mouse RAW264.7 cells assessed as protein levels by ELISA (reference value: 1.23 +/- 0.06 pg/mL). It is filed as cell-based.
Test [6] relates to RAW264.7. Nature of the test: Antiinflammatory activity against LPS-stimulated mouse RAW264.7 cells assessed as PGE2 levels by ELISA (reference value: 33.2 +/- 2.33 pg/mL). The test is classed as functional.
The test system of test [7] is RAW264.7. Nature of the test: Antiinflammatory activity against LPS-stimulated mouse RAW264.7 cells assessed as TNFalpha levels by ELISA (reference value: 183.21 +/- 5.36 pg/mL). The test is classed as functional.

Regarding `COc1ccc2c(c1)c(CC(=O)O)c(C)n2C(=O)c1ccc(Cl)cc1` [INDOMETHACIN], the Activity was found to be 17.38 U/ml in the test with RAW264.7 [1]; 3.15 pg/mL in the test on RAW264.7 [2]; 71.47 pg/mL in the test with RAW264.7 [3]; 0.17 µmol/mL in the test on RAW264.7 [4]; 0.39 pg/mL in test [5]; 19.67 pg/mL in the test with RAW264.7 [6]. Moreover, the Activity in the test with RAW264.7 [7] is 58.55 pg/mL.
